The source of these data is patent US20060160114A1, “Reagents and methods for predicting drug resistance” (Oncotech, Inc., priority 2004, published 2006).

The subject of the assay is tumor cells from patient tumor samples. The assay is described as follows: Extreme Drug Resistance (EDR) assay, tritiated thymidine incorporation in soft agarose culture. The class given is cell-based, human. To be noted: supratoxic dose 33 μM, positive (background) control group.

Experimental: In the practice of this assay, tumor cells are taken from a cancer biopsy and exposed to cancer chemotherapeutics in culture. During the culture period, radioactive thymidine is added, which is incorporated into the DNA of growing and dividing cancer cells (which are thus resistant to the cytostatic or cytotoxic effects of the cancer chemotherapeutic). Tritiated thymidine is not incorporated into cells that are sensitive to the drug and reduce or suspend growth and division in response to the drug. […] By measuring the amount of radioactivity in a sample, the assay determines the relative resistance of an individual patient's cancer cells to a number of different chemotherapies. […]
The EDR assay is an agarose-based culture system, using tritiated thymidine incorporation to define in vitro drug response. […] The radioactivity trapped on the filters was counted with an LS-6500 scintillation Counter (Beckman, Fullerton, Calif.). […] Detectable radioactivity for this group was considered non-specific background related to debris trapping of tritiated thymidine on the filter. After subtracting background control values, percent control inhibition (PCI) of proliferation was determined by comparing thymidine incorporation by the treatment group with incorporation by the negative control group: PCI=100%×[1−(CPM treatment group/CPM control group)]. […]

`N.N.[Cl][Pt][Cl]` [Cisplatin] returned a cell death of 100%.
